Consider 13 compounds from patent publication US4444691A, “11-Cyano-prostaglandins of the F-series” (American Cyanamid Company, priority 1982, dated 1984).

The structures appear in SMILES notation. Where two headings read alike, the source gives them in different places.

The test system of experiment [1] is bronchospasms elicited by 5-hydroxytryptamine. Description: Bronchodilator activity (Konzett assay), 5-hydroxytryptamine bronchospasm. It is filed as in vivo, guinea pigs. As to conditions: spasmogenic agent 5-hydroxytryptamine, three logarithmic cumulative intravenous doses; for ED50: Cavia porcellus. How it is done: (§1) Bronchodilator activity was determined in guinea pigs against bronchospasms elicited by intravenous injections of 5-hydroxytryptamine, histamine or acetylchlorine by the Konzett procedure. (See J. Lulling, P. Licvens, F. El Sayed and J. Prignot, Arzneinittel-Forschung, 18, 995 (1968).]
(§2) In the Table which follows bronchodilator activity for representative compounds of this invention against one or more of the three spasmogenic agents is expressed as an ED50 determined from the results obtained with three logarithmic cumulative intravenous doses.

For the next experiment, the system named is gastric acid secretion. The experiment is described as follows: Gastric acid secretion inhibition, modified Shay rat procedure. It counts as in vivo, rats (male, CFE strain). As to conditions: intraduodenal. From the text: The novel compounds of the present invention are effective inhibitors of gastric acid secretion and of ulcer development in experimental animals, and thus are potentially valuable as agents for the control of gastric secretion and of gastric erosion and as anti-ulcer agents. Gastric acid secretion inhibitory action is usually measured by the "Shay rat" procedure ^(1,2) with some modifications as follows.
(1) Shay et al., Gastroenterology, 5, 43 (1945).
The rats (male, CFE strain) were starved for 48 hours (water was given ad libitum) to permit evacuation of stomach contents. On the morning of the experiment, under ether anesthesia, the abdominal region was shaved and a midline incision (1-11/2" ) was made with a scapel. With the help of a closed curved hemostat the duodenum was picked up. Upon getting the duodenum into view, fingers were used to pull the stomach through the opening, the stomach was then gently manipulated with fingers to rid stomach of air and residual matter which were pushed through the pylorus. Two-5 inch sutures were drawn under the pyloric-duodenal puncture. A ligature at the juncture, was formed with one of the threads. The second ligature was also formed but not tightened.
The test compound or the vehicle, usually 1 ml./100 g. body weight, were injected into the duodenum as close as possible to the first ligature. After injection the second ligature was tightened below the injection site to minimize leakage. The stomach was placed back through the opening into the abdominal cavity, the area of incision was washed with saline and the incision was closed with autoclips. (Occasionally, instead of an intraduodenal injection, animals were dosed by the oral or subcutaneous route. In the latter case, dosing was done thirty to sixty minutes before the operation.)
The abdominal cavity was exposed by cutting with scissors and the esophagus close to the stomach was clamped off with a hemostat, the stomach was removed by cutting above the hemostat (the esophagus was cut) and between the two sutures. Extraneous tissue was removed, the stomach washed with saline and blotted on gauze. A slit was carefully made in the stomach which was held over a funnel and the contents were collected in a centrifuge tube. The stomach was further cut along the outside edge and turned inside out. Two ml. H2 O were used to wash the stomach contents into the respective centrifuge tube. The combined stomach contents and wash were then centrifuged out for 10 minutes in the International Size 2 Centrifuge (setting at 30). The supernatant was collected, volume measured and recorded, 2 drops of a phenylphthalein indicator (1% in 95% ethanol) were added and the solution was titrated with 0.02 N NaOH (or with 0.04 N NaOH when large volumes of stomach contents were encountered) to pH 8.4 (because of usual coloring of the stomach contents, phenolphthalein was only used to permit visual indication that the end point was near) and the amount of acid present was calculated.
Compounds inducing inhibition of gastric acid secretion of 20% or more were considered active. In a representative operation, and merely by way of illustration, the results obtained with this assay with typical compounds of the present invention are given in Table II below.

Experiment [2] concerns bronchospasms elicited by histamine. The experiment is described as follows: Bronchodilator activity (Konzett assay), histamine bronchospasm. It counts as in vivo, guinea pigs. The settings on record: spasmogenic agent histamine, three logarithmic cumulative intravenous doses; for ED50: Cavia porcellus, iv. The protocol:
as §1, §2

Experiment [3] concerns ulcerogenic effects induced by indomethacin (stomach ulcers). It is filed as in vivo, rat. The settings on record: indomethacin 20 mg/kg s.c., score 0-4. How it is done: It is further to be noted that although prostaglandins in general are not effective when administered by oral route, the compounds of this invention are effective orally. The assay to determine the protective effect of these compounds is carried out in the following manner.
Rats were starved for 48 hours (water was given ad libitum). Indomethacin (20 mg./kg. of body weight) was administered by the subcutaneous route and one-half the dose of the test compound was administered by gavage at the same time. After three hours, the second half of the test compound was administered, also by gavage. Five hours after the administration of indomethacin the animals were decapitated and the stomachs removed. The stomachs were washed with distilled water, blotted on gauze, cut along the larger curvature, and the contents rinsed with distilled water. The stomachs were spread out, pinned on a cork and visualized under magnifying glass for ulcers. The criteria for scoring of ulcers was as previously reported. [Abdel-Galil et al. Brit. J. Pharmac. Chemotherapy 33:1-14 (1968)]. […]
1 Petechial hemorrhage of pin point ulcers
3 Many ulcers, a few large
4 Many ulcers, mainly large
Control animals treated with indomethacin but not test compound consistently give scores of about 2.5-3.5. Control animals treated with neither indomethacin not test compound give scores of about 0.5-0.8. Compounds diminishing the control ulcer score by 0.5 unit or more are considered to be active.

The test system of experiment [4] is bronchospasms elicited by acetylcholine. The experiment is described as follows: Bronchodilator activity (Konzett assay), acetylcholine bronchospasm. The settings on record: Cavia porcellus; spasmogenic agent acetylcholine; three logarithmic cumulative intravenous doses. It counts as in vivo, guinea pigs. The protocol: as §1, §2
In experiment [5] the test system is basal gastric acid secretion. Description: Inhibition of total acid output (basal gastric acid secretion) in the acute gastric fistula rat. The settings on record: intraduodenal, 10 mg/kg; for inhibition in vivo at 10 mg/kg: Rattus norvegicus. It is filed as in vivo, female Sprague-Dawley rats. The protocol:
Inhibition of basal gastric acid secretion can be determined by the following procedure.
Female Sprague-Dawley rats weighing 140-160 grams are fasted in individual cages for 18-24 hours. The rats are then lightly anesthetized with ether and their front teeth extracted to avoid destruction of the plastic cannula. A midline incision is then made and the stomach and duodenum exposed. A flanged polyvinyl tube is inserted into the fundic portion of the stomach and secured with a purse string suture line using 4-O Mersilene. The rat is then dosed by injection of the compound into the duodenum (1.0 ml. per 100 gram body weight). After dosing, the abdominal wall and skin are closed using metal wound clips. The rat is replaced in a cage containing a longitudinal slit to allow the polyvinyl tube to hang freely. An 8 ml. plastic collecting tube is attached to the flanged cannula and hangs freely below the cage. The first 30 minute sample is discarded designating this time as zero. The collecting tube is attached again and samples removed at the end of 60 and 120 minutes. These samples are referred to as "A" and "B" in the table. The hourly samples are then transferred to a 15 ml. centrifuge and centrifuged for 5-10 minutes. Total and sediment volume are then recorded with the supernatent volume being used as volume of secretion. A 1 ml. or less aliquot is then removed and placed in a 50 ml. beaker containing 10 ml. of distilled water. This sample is then titrated using 0.01 N NaPH to pH 7.0 using a Beckman zeromatic pH meter. Volume, titratable acidity (mew/L) and total acid output (ueq/hour) are recorded. Percent inhibition is determined by comparison with the appropriate control. Groups of three rats were used for preliminary testing, and groups of six rats were used for dose-response evaluations. All compounds are administered in a vehicle consisting of 0.5% methocel, 0.4% tween 80, and saline at a constant volume of 1 ml./100 gram rat. Samples are dispersed by sonification. Percent inhibition is calculated on basis of concurrent vehicle control.
In Table III which follows is given the effect on total acid output after 60 minutes and 120 minutes of intraduodenal dose, of representative compounds of this invention.

Setting [6] is: Rattus norvegicus, 50 mg/kg, read-out: Percent inhibition of gastric acid secretion.
The mark [7] stands for this setting: total oral dose 25 mg/kg, controls 2.7-3.9.
Setting [8] is: total oral dose 12.5 mg/kg, controls 2.5-3.0.
The mark [9] stands for this setting: total oral dose 50 mg/kg, controls 2.5-3.2.
Setting [10] is: 1 h, 60 min, read-out: % Inhibition of total acid output, after 60 minutes (A).
[11] abbreviates: 2 h, 120 min, read-out: % Inhibition of total acid output, after 120 minutes (B).

In general, ED50 refers to the midpoint of the dose-response relation. A high value points to a need for a large dose. Compound `CCCCC[C@H](O)/C=C/[C@@H]1[C@@H](C/C=C\CCCC(=O)O)C(=O)C[C@H]1c1ccccc1` [l-11α-phenyl-11-deoxyprostaglandin-E2, l-11-deoxy-11α-phenylprostaglandin-E2] returned an ED50 in experiment [1] of 0.46 mg/kg. Also, the inhibition in vivo at 50 mg/kg with gastric acid secretion (setting [6]) is 58%.

Consider `CCCCC[C@H](O)/C=C/[C@@H]1[C@@H](C/C=C\CCCC(=O)O)[C@@H](O)C[C@H]1C` [l-11α-methyl-11-deoxyprostaglandin-F2 α, 11-deoxy-11α-methyl-prostaglandin F2α], for which the 50% effective dose (ED50) in experiment [1] was found to be 0.038 mg/kg; in experiment [2], 0.013 mg/kg. Further, in experiment [3] (setting [7]), the “Ulcer score, treated animals” value is 1.8. Also, in the experiment with gastric acid secretion (setting [6]), the inhibition in vivo at 50 mg/kg stood at 70%.

Consider `CCCCC[C@H](O)CC[C@H]1[C@H](C)CC(=O)[C@@H]1CCCCCCC(=O)O` [11-deoxy-11α-methyl-13,14-dihydroprostaglandin E1], for which the “Ulcer score, treated animals” value is listed as 2.3 in experiment [3] (setting [8]) and 1.7 in experiment [3] (setting [9]). The median effective dose (ED50) in experiment [4] stood at 0.773 mg/kg. Moreover, the inhibition in vivo at 50 mg/kg in the experiment with gastric acid secretion (setting [6]) came out at 45%.

Consider `CCCCC[C@H](O)/C=C/[C@H]1[C@H](C(N)=O)CC(=O)[C@@H]1C/C=C\CCCC(=O)O` [11α-carboxamido-11-deoxyprostaglandin E2], for which the “ED50, bronchodilator activity” value in experiment [1] came to 1.7 mg/kg; in experiment [2] it was 0.53 mg/kg. The “% Inhibition of total acid output, after 60 minutes (A)” value in experiment [5] (60 min) is given as 27%. Moreover, the “% Inhibition of total acid output, after 120 minutes (B)” value in experiment [5] (120 min) was 35%. In the experiment with gastric acid secretion (50 mg/kg), the “Percent inhibition of gastric acid secretion” value was 27%.

`CC/C=C\CC(O)/C=C/C1C(C/C=C\CCCC(=O)O)C(=O)CC1C(C(=O)O)C(=O)O` (stereo not drawn) [l-11α-dicarboxymethyl-11-deoxyprostaglandin-E3]: the “ED50, bronchodilator activity” value in experiment [1] is 3.3 mg/kg.

For `CCCCC[C@H](O)/C=C/[C@H]1[C@H](CC)CC(=O)[C@@H]1C/C=C\CCCC(=O)O` [l-11α-ethyl-11-deoxyprostaglandin-E2, 11-deoxy-11α-ethyl-prostaglandin E2], the figures for the ED50 in experiment [2] and in experiment [4] were 1.24 mg/kg and 3.9 mg/kg, respectively. The inhibition in vivo at 10 mg/kg is 57% in experiment [5] (setting [10]) and 66% in experiment [5] (setting [11]). Further, in experiment [3] (setting [7]), the “Ulcer score, treated animals” value is listed as 2.2.

`CCCCC[C@H](O)/C=C/[C@@H]1[C@@H](C/C=C\CCCC(=O)O)C(=O)C[C@H]1C(C)C` [l-11α-isopropyl-11-deoxyprostaglandin-E2, 11-deoxy-11α-isopropyl-prostaglandin E2] yielded an ED50 in experiment [1] of 8.95 mg/kg. The inhibition in vivo at 50 mg/kg in the experiment with gastric acid secretion (setting [6]) came out at 42%.

For `CCCCC[C@H](O)/C=C/[C@H]1[C@@H](C#N)CC(=O)[C@@H]1C/C=C\CCCC(=O)O` [l-11β-cyano-11-deoxyprostaglandin-E2, l-11-deoxy-11β-cyanoprostaglandin-E2], the ED50 in experiment [1] worked out at 3.1 mg/kg; in experiment [2], 54.9 mg/kg. Besides, the inhibition in vivo at 10 mg/kg in experiment [5] (setting [10]) turned out to be 26%; in experiment [5] (setting [11]) it was 43%.

Consider `CCCCC[C@H](O)/C=C/[C@@H]1[C@@H](C/C=C\CCCC(=O)O)[C@@H](O)C[C@H]1C#N` [l-11α-cyano-11-deoxyprostaglandin-F2 α, 11α-cyano-11-deoxyprostaglandin F2 α], for which the ED50 in experiment [1] came out at 0.03 mg/kg; in experiment [4] it was 0.051 mg/kg. In addition, the “Ulcer score, treated animals” value in experiment [3] (setting [7]) is recorded as 1.3. In addition, the inhibition in vivo at 50 mg/kg in the experiment with gastric acid secretion (setting [6]) was 43%.

In experiment [1], `CCCCCC(C)/C=C/[C@H]1[C@H](C)CC(=O)[C@@H]1C/C=C\CCCC(=O)O` (stereo partly drawn) [l-11α,15-dimethyl-11,15-bisdeoxyprostaglandin-E2] returned an ED50 of 18.1 mg/kg. Besides, the inhibition in vivo at 50 mg/kg in the experiment with gastric acid secretion (setting [6]) stood at 60%.

In the case of `C=C[C@@H]1CC(=O)[C@H](C/C=C\CCCC(=O)O)[C@H]1/C=C/[C@@H](O)CCCCC` [l-11α-vinyl-11-deoxyprostaglandin-E2, 11-deoxy-11α-vinyl-prostaglandin E2], the ED50 was found to be 1.2 mg/kg in experiment [1] and 1.3 mg/kg in experiment [2]. In addition, the inhibition in vivo at 50 mg/kg in the experiment on gastric acid secretion (setting [6]) turned out to be 59%.

For `CCCCC[C@H](O)/C=C/[C@@H]1[C@@H](C/C=C\CCCC(=O)O)[C@@H](O)C[C@H]1SC` [11α-methylthio-11-deoxyprostaglandin F2α], the median effective dose (ED50) in experiment [1] turned out to be 2.63 mg/kg; in experiment [2], 1.6 mg/kg. Further, the “Ulcer score, treated animals” value in experiment [3] (setting [8]) came out at 1.2. In the experiment on gastric acid secretion (setting [6]), the inhibition in vivo at 50 mg/kg is 61%.

Regarding `CCCCC[C@@H](/C=C/[C@H]1C(C#N)CC(=O)[C@@H]1C/C=C\CCCC(=O)OC)OC(C)=O` (stereo partly drawn) [11α/11β-cyano-11-deoxy-15-O-acetyl-prostaglandin E2 methyl ester], the inhibition in vivo at 10 mg/kg turned out to be 40% in experiment [5] (setting [10]) and 34% in experiment [5] (setting [11]). Besides, the “Ulcer score, treated animals” value in experiment [3] (setting [8]) was determined as 2.0; in experiment [3] (setting [9]), 1.3. In addition, the inhibition in vivo at 25 mg/kg in the experiment on gastric acid secretion (Rattus norvegicus, 25 mg/kg, read-out: Percent inhibition of gastric acid secretion) is 51%.
